According to patent US11566029B2, “Pyrazolo[1,5-a]pyrimidine-5,7-diamine compounds as CDK inhibitors and their therapeutic use” (CANCER RESEARCH TECHNOLOGY LIMITED, priority 2014, dated 2023):
Structures can show the parent of a compound that is named as a salt. Where two headings read alike, the source gives them in different places.

Tests used:
HCT116 cells = assay: Cell growth inhibition assay (sulforhodamine B), HCT116; assay type: cell-based; settings: Homo sapiens, HCT-116
Method: (§1) All cells were purchased from the American Type Culture Collection (ATCC) and MCF7 cells were routinely cultured in Dulbecco's Modified Eagle's Medium (DMEM) supplemented with 10% fetal calf serum (FCS) (First Link) and HCT116 cells were routinely cultured in Roswell Park Memorial Instititute Medium (RPMI) supplemented with 10% FCS. Cell growth was assessed using a known sulforhodamine B assay (see, e.g., Skehan et al., 1990).
(§2) MCF-7 cells purchased from ATCC (USA) were routinely passaged in DMEM, supplemented with 10% FCS and HCT116 cells purchased from ATCC (USA) were routinely passaged in RPMI supplemented with 10% FCS and kept in a 37° C. incubator with 5% CO2. The growth assay for both cell lines was performed in the appropriate media using the exact same protocol as described here. For the growth assay, 5000 cells were seeded into each well of 96-well plates in DMEM containing 10% FCS. Test compounds prepared in DMSO were added to the medium at concentrations ranging from 0.00038-100 μM. The cells were incubated for a further 72 hours, at which time they were fixed by the addition of 100 μL/well of ice-cold 40% trichloroacetic acid (TCA). The plates were left for 1 hour at 4° C., washed in water and 100 μL of 0.4% (w/v) sulforhodamine (SRB; Sigma-Aldrich, UK) prepared in 1% acetic acid was added. Plates were washed in 1% acetic acid to remove excess SRB reagent, air dried, and bound dye was solubilized by the addition of 100 μL of 10 mM tris base. The plates were read at 492 nm using a plate reader.

MCF7 cells = assay: Cell growth inhibition assay (sulforhodamine B), MCF7; assay type: cell-based; settings: Homo sapiens
Method: as §1, §2

HCT116 tumour xenograft = HCT116 tumour xenograft study; assay type: in vivo, female Balb/c nu/nu mice
CDK5/p35NCK = target: T1, CDK5/p35NCK (Homo sapiens, UniProt Q00535); assay: In vitro kinase assay (PKLight luciferase ATP readout), CDK5; assay type: biochemical; settings: ATP at Km; three experiments
T1 construct: purchased ProQinase GmbH
Method: (§3) Purified recombinant CDK1/cycA1, CDK2/cycA1, CDK4/cycD1, CDK5/p35NCK, CDK6/cycD1, CDK7/CycH/MAT1, and CDK9/CycT1 were purchased from ProQinase GmbH. Kinase assays were performed according to manufacturer's protocols. Rb-CTF (ProQinase GmbH) (cat number: 0040-0000-6) was used as the kinase substrate for CDK1, CDK2, CDK4, and CDK6 kinases. […] A luciferase assay (PKLight assay; Cambrex) was used to determine ATP remaining at the end of the kinase reaction, which provides a measure of kinase activity, according to the manufacturer's protocols.
(§4) Kinase assays were carried out by incubation of increasing amounts of test compound with purified recombinant CDK-Cyclin complex, followed by measurement of free ATP remaining in the reaction using the luciferase assay kit (PKLight, Cambrex) which therefore provided a measure of inhibition for the specific CDK.
(§5) 5 μL of 1× kinase buffer (Cell Signalling Technologies) was mixed with 200 ng CDK1, 200 ng CDK2, 50 ng CDK4, 100 ng CDK5, or 200 ng CDK6 with 5 μg Rb-CTF and 300 ng CDK7 or 200 ng CDK9 with 500 μM RNA Poll II CTD peptide. […] The mixture was incubated at 30° C. for 30 minutes. […] Then 40 μL of the luciferase mix was added to the reaction mixture which was incubated for a further 10 minutes at room temperature and measured using the Tecan Infinite 2000 plate reader. […]

CDK1/cycA1 = target: T2, CDK1/cycA1 (Homo sapiens, UniProt P06493); assay: In vitro kinase assay (PKLight luciferase ATP readout), CDK1; assay type: biochemical
T2 construct: purchased ProQinase GmbH
Method: as §3, §4
(§6) 5 μL of 1× kinase buffer (Cell Signalling Technologies) was mixed with 200 ng CDK1, 200 ng CDK2, 50 ng CDK4, 100 ng CDK5, or 200 ng CDK6 with 5 μg Rb-CTF and 300 ng CDK7 or 200 ng CDK9 with 500 μM RNA Poll II CTD peptide. […] The mixture was incubated at 30° C. for 30 minutes. The reaction is stopped with 20 μL of Stop Solution (provided in the PKLight kit) for 10 minutes at room temperature. Then 40 μL of the luciferase mix was added to the reaction mixture which was incubated for a further 10 minutes at room temperature and measured using the Tecan Infinite 2000 plate reader. GraphPad Prism Software was used to generate standard curve and determine the IC50's for each CDK.

[1] = system: phospho-ER S118 in MCF-7 cells; assay: Immunoblot of ER serine-118 phosphorylation in MCF-7 cells; assay type: cell-based; settings: 1 μmol/L, time course, FIG. 6
Method: Cell lysates were prepared by the addition of RIPA buffer (Sigma-Aldrich, cat no: R0278). Immunoblotting was carried out using standard methods (see, e.g., Harlow & Lane, 1988, Antibodies: A Laboratory Manual, Cold Spring Harbor Laboratory Press, USA), with antibodies for the protein or phosphorylation mark indicated. β-actin was used as control for protein loading. The second antibody was HRP-coupled Goat anti Mouse or Rabbit IgG.

CDK4/cycD1 = target: T3, CDK4/cycD1 (Homo sapiens, UniProt P11802); assay: In vitro kinase assay (PKLight luciferase ATP readout), CDK4; assay type: biochemical; settings: ATP at Km; three experiments
T3 construct: purchased ProQinase GmbH
Method: as §3, §4, §5

CDK6/cycD1 = target: T4, CDK6/cycD1 (Homo sapiens, UniProt Q00534); assay: In vitro kinase assay (PKLight luciferase ATP readout), CDK6; assay type: biochemical; settings: ATP at Km; three experiments
T4 construct: purchased ProQinase GmbH
Method: as §3, §4, §5

[2] = system: human tumor cell lines (NCI60); assay: NCI60 cancer cell line screen; assay type: cell-based
Excerpt: To extend the analysis to a more extensive set of cancer cell lines, PPDA-001 was submitted to the National Cancer Institute's Division of Cancer Treatment and Diagnosis in vitro screen of human tumor cell lines (http://dtp.nci.nih.gov/branches/btb/ivclsp.html).
Each line represents one cell line.

CDK2/cycA1 = target: T5, CDK2/cycA1 (Homo sapiens, UniProt P24941); assay: In vitro kinase assay (PKLight luciferase ATP readout), CDK2; assay type: biochemical; settings: ATP at Km; read-out: In vitro Kinase Inhibition CDK2 IC50
T5 construct: purchased ProQinase GmbH
Method: as §3, §4, §6

CDK7/CycH/MAT1 = target: T6, CDK7/CycH/MAT1 (Homo sapiens, UniProt P50613); assay: In vitro kinase assay (PKLight luciferase ATP readout), CDK7; assay type: biochemical; settings: for IC50: ATP at Km, read-out: In vitro Kinase Inhibition CDK7 IC50; for Selectivity CDK1/CDK7: ratio of CDK1 IC50 to CDK7 IC50; for Selectivity CDK2/CDK7: ratio of CDK2 IC50 to CDK7 IC50
T6 construct: purchased ProQinase GmbH
Method: as §3, §4, §6

[3] = 72 hours, SRB assay, read-out: Growth Inhibition, GI50 HCT116
[4] = 72 hours, SRB assay, read-out: Growth Inhibition, GI50 MCF7
[5] = ATP at Km, read-out: In vitro Kinase Inhibition CDK1 IC50

T6 sequence (P50613 whole entry): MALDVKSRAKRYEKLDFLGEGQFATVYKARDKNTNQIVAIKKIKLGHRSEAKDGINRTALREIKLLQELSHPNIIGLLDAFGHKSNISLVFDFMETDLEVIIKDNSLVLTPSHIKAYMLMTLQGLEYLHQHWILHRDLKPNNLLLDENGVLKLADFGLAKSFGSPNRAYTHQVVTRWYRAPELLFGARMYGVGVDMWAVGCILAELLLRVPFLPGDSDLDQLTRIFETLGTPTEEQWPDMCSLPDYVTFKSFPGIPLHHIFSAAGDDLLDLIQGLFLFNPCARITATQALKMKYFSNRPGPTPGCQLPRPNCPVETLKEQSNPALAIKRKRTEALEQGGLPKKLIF
T6 sequence (P51946 whole entry partner): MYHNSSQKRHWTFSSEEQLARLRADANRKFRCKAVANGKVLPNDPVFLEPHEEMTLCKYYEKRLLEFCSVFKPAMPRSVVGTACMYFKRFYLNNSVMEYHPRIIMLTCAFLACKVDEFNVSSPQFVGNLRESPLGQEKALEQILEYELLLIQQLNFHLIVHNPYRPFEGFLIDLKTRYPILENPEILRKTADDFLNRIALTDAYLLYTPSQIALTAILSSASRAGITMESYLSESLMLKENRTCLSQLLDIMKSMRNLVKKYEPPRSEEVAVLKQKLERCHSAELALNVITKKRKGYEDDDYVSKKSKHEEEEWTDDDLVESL
T6 sequence (P51948 whole entry partner): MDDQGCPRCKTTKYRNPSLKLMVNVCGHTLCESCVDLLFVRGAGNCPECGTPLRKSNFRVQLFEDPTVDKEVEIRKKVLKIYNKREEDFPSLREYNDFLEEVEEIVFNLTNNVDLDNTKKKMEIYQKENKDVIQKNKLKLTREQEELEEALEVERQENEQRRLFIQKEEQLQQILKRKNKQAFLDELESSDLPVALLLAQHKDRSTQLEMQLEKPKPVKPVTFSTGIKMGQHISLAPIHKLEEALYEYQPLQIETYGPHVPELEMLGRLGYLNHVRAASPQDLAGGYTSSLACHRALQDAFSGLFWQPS
T3 sequence (P11802 whole entry): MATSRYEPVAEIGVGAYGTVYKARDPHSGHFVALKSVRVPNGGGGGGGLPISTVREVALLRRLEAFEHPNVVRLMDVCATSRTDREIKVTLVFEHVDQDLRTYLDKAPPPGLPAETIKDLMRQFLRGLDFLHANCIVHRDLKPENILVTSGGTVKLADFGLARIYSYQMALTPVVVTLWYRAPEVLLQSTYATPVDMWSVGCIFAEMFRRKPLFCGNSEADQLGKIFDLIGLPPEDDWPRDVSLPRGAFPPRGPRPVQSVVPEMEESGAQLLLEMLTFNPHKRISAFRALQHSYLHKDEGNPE
T3 sequence (P24385 whole entry partner): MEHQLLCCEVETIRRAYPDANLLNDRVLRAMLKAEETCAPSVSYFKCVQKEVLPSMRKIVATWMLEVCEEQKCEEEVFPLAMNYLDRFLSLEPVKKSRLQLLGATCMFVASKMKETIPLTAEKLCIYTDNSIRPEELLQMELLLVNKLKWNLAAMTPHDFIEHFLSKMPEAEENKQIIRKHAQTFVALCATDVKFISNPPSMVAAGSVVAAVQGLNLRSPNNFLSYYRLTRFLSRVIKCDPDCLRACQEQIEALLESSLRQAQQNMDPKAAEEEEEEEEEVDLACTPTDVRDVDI
T1 sequence (Q00535 whole entry): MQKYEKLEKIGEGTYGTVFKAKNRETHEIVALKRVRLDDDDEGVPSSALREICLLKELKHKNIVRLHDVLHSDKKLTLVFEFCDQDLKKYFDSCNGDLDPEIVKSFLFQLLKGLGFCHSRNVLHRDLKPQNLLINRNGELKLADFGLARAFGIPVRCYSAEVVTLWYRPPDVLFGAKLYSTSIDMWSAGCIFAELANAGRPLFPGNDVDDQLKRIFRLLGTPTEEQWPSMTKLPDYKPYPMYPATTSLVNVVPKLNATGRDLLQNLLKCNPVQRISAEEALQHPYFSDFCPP
T1 sequence (Q15078 whole entry partner): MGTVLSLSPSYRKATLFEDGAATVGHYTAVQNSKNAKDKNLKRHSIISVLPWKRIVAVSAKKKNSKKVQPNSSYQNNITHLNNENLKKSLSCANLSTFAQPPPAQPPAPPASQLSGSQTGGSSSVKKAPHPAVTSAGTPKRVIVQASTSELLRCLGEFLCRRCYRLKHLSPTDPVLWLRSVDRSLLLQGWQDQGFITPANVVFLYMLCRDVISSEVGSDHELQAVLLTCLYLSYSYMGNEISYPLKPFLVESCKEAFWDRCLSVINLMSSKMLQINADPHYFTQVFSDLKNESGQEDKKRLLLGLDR
T4 sequence (Q00534 whole entry): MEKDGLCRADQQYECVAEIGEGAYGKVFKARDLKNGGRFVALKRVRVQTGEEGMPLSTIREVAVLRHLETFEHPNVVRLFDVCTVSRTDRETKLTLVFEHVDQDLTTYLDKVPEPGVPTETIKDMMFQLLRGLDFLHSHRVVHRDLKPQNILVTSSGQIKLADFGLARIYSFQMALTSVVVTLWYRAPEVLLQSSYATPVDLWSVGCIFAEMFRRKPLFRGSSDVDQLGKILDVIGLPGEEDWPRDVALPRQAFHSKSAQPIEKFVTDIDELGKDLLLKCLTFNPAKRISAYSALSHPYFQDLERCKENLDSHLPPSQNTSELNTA
T4 sequence (P24385 whole entry partner): as the sequence (P24385 whole entry partner) above

SMILES	GI50 (HCT116 cells; [3]) [nM]	GI50 (HCT116 cells; read-out: GI50, colorectal (HCT116) cancer cell line) [nM]	GI50 (MCF7 cells; [4]) [nM]	GI50 (MCF7 cells; read-out: GI50, breast (MCF7) cancer cell line) [nM]	reduction in tumor growth (HCT116 tumour xenograft; 50 mg/kg/bi-daily and 100 mg/kg once daily PO, compared with the control arms) [%]	Animal weight (percent body weight) (HCT116 tumour xenograft; PPDA-001 treatment arms (50 mg/kg bi-daily, 100 mg/kg once daily, PO), over the course of the study, vehicle 98%) [%]	IC50 (CDK5/p35NCK) [nM]	IC50 (CDK1/cycA1) [nM]	phosphorylation of ER at serine-118 (phospho-ER S118) [1]	IC50 (CDK4/cycD1) [nM]	IC50 (CDK6/cycD1) [nM]	GI50 ([2]; mean of all 60 cell lines, read-out: mean GI50 over 60 cancer cell lines) [nM]	GI50 ([2]; range over all 60 cell lines, read-out: range GI50 over 60 cancer cell lines) [nM]	IC50 (CDK2/cycA1) [nM]	IC50 (CDK1/cycA1; [5]) [nM]	IC50 (CDK7/CycH/MAT1) [nM]	Selectivity CDK1/CDK7 (CDK7/CycH/MAT1) [fold]	Selectivity CDK2/CDK7 (CDK7/CycH/MAT1) [fold]
CC(C)c1cnn2c(NCc3ccccc3)cc(NC[C@H]3CCNC[C@@H]3O)nc12 [PPDA-001, (3R,4R)-4-(((7-(Benzylamino)-3-isopropylpyrazolo[1,5-a]pyrimidin-5-yl)amino)methyl)piperidin-3-ol hydrochloride]	630	< 1000	960	< 1000	65	92	9000	1520	inhibits phosphorylation of ER at serine-118	42100	32100	280	40 to 2100	–	–	–	–	–
CC(C)c1cnn2c(NCc3ccncc3)cc(NCC3(O)CCNCC3)nc12 [PPDA-010, 4-(((3-iso-Propyl-7-((pyridin-4-ylmethyl)amino)pyrazolo[1,5-a]pyrimidin-5-yl)amino)methyl)piperidin-4-ol hydrochloride]	25000	–	11900	–	–	–	–	–	–	–	–	–	–	115	3620	788	4.6	0.1
CC(C)c1cnn2c(NCc3ccccc3Cl)cc(NCC3(O)CCNCC3)nc12 [PPDA-011]	1600	–	300	–	–	–	–	–	–	–	–	–	–	98	143	414	0.3	0.2
CC(C)c1cnn2c(NCc3ccccc3Br)cc(NCC3(O)CCNCC3)nc12 [PPDA-012]	1600	–	500	–	–	–	–	–	–	–	–	–	–	118	74	484	0.2	0.2
CC(C)c1cnn2c(NCC3CCCCC3)cc(NCC3(O)CCNCC3)nc12 [PPDA-013]	1100	–	1200	–	–	–	–	–	–	–	–	–	–	344	330	80	4.1	4.3
CC(C)c1cnn2c(NCC3CCCCC3)cc(N[C@H]3CNC[C@H]3O)nc12 [PPDA-016]	7400	–	13100	–	–	–	–	–	–	–	–	–	–	4550	1460	246	5.9	18
CC(C)c1cnn2c(NCc3ccc(C(F)(F)F)cc3)cc(N[C@H]3CNC[C@H]3O)nc12 [PPDA-017]	11400	–	12800	–	–	–	–	–	–	–	–	–	–	754	1350	1890	0.7	0.4
CC(C)c1cnn2c(NCc3ccccc3)cc(N[C@@H]3CNCC[C@H]3O)nc12 [PPDA-022, (3R,4R)-3-(7-(Benzylamino)-3-iso-propyl-pyrazolo[1,5-a]pyrimidin-5-ylamino) piperidin-4-ol]	10400	–	3700	–	–	–	–	–	–	–	–	–	–	568	1900	73	26	7.8
CO[C@@H]1CCNCC1Nc1cc(NCc2ccccc2)n2ncc(C(C)C)c2n1 (stereo partly shown) [PPDA-023]	5600	–	3700	–	–	–	–	–	–	–	–	–	–	450	1200	60	20	7.5
CC(C)c1cnn2c(NCc3ccccc3)cc(N[C@H]3CNCC[C@@]3(O)CO)nc12 [PPDA-024]	46400	–	12200	–	–	–	–	–	–	–	–	–	–	1030	844	150	5.6	6.8
CC(C)c1cnn2c(NCc3ccccc3)cc(N[C@@H]3CN[C@H](CO)C3)nc12 [PPDA-026, ((2S,4S)-4-(7-(Benzylamino)-3-iso-propylpyrazolo[1,5-a]pyrimidin-5-ylamino)pyrrolidin-2-yl)methanol hydrochloride]	10700	–	2000	–	–	–	–	–	–	–	–	–	–	203	162	89	1.8	2.3
COC[C@H]1C[C@@H](Nc2cc(NCc3ccccc3)n3ncc(C(C)C)c3n2)CN1 [PPDA-027]	8900	–	3400	–	–	–	–	–	–	–	–	–	–	680	253	18	14	38
CC(C)c1cnn2c(NCc3ccccc3)cc(N[C@H]3CN[C@@H](CO)C3)nc12 [PPDA-028]	7300	–	3300	–	–	–	–	–	–	–	–	–	–	262	4010	43	93	6.1
